# According to patent US20160101076A1, “Use of Sumoylation Inhibitors for Treating Cancer” (priority 2013, published 2016):
# Peptide text beside a SMILES is read from it. * marks the point of attachment. Cbz = O=C(OCc1ccccc1)*
# Columns and labels:
# [1] = test system: sumoylated TFAP2A in BT549 cells; test: Sumoylation of TFAP2A in BT549 cells with peroxide / MG-132; assay type: cell-based, human
# Procedure: FIG. 15A-15B. Sumoylated TFAP2A in Basal Cells Induced with Peroxide. Sumoylation of TFAP2A was analyzed in the basal cell line BT549 with and without treatment with peroxide. FIG. 15A. BT549 cells co-transfected with vectors for TFAP2A and either SUMO-1, -2 or -3 and treated without or with peroxide, as indicated. […] Experiment in A was performed in the absence of the proteasome inhibitor MG-132. FIG. 15B. Similar experiments performed with MG-132 treatment either without or with peroxide.
# Sumoylation in vitro was done using SUMOlink™ SUMO-1 Kit and SUMOlink™ SUMO-2/3 Kit (Carlsbad). SUMO plasmids and pcDNA3.1-TFAP2A or K10R mutant were used for in vitro protein production. MCF-7 were transfected for 48 hours with […] SUMO expressing plasmids (Feng et al., 2013) that were kindly provided by Dr Xiaolu Yang (University of Pennsylvania). As indicated in some experiments, the proteasome inhibitor MG132 was added as described (Chu and Yang, 2011).
# [2] = test system: FREM2 and RET expression; test: Estrogen responsiveness of FREM2 expression, Tamoxifen treatment; assay type: cell-based; conditions: FIG. 11E
smiles,measurement,setting,value
CC(C)C[C@@H](C=O)NC(=O)[C@H](CC(C)C)NC(=O)[C@H](CC(C)C)NC(=O)OCc1ccccc1 [MG-132] (Cbz-Leu-Leu-Leu-aldehyde),identification of the sumoylated forms of TFAP2A,"[1]; BT549 cells, MG-132 treatment without or with peroxide, FIG. 15B",enhanced identification
CC/C(=C(\c1ccccc1)c1ccc(OCCN(C)C)cc1)c1ccccc1 [Tamoxifen],FREM2 expression,[2],not estrogen responsive
same,RET expression,[2],appropriately repressed
OO [peroxide],sumoylated TFAP2A,"[1]; BT549 cells co-transfected with TFAP2A and SUMO-1, -2 or -3, with vs without peroxide, FIG. 15A",Induction
